Common to all, as to test: G' assay (10 uM PL peptide), results of TABLE 7 and TABLE 12
Holding throughout (type): binding

For assay [1], the target named is T1, PDZ protein (GST-PDZ fusion) (Homo sapiens, UniProt O75970).
T1 construct: made in house; host or cells: E. coli (DH5alpha, BL21 or JM109)
An outline of the steps: (§1)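 Biotinylated PL peptides at 10 uM (vs 20 uM in G^0 assay) bound to GST-PDZ fusions; PDZ protein at 5 ug/ml unless another concentration listed. Bound peptide read as A450 nm, classified 0–5 (0 = A450 0; 5 = A450 >4 repeated).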

Assay [2] concerns the target T2, PDZ protein (GST-PDZ fusion) (Homo sapiens, UniProt Q12923).
T2 construct: made in house; host or cells: E. coli (DH5alpha, BL21 or JM109)
An outline of the steps: as §1

The subject of assay [3] is PDZ protein (GST-PDZ fusion). An outline of the steps: as §1
Assay [4] concerns the target T3, PDZ protein (GST-PDZ fusion) (Homo sapiens, UniProt Q5TCQ9).
T3 construct: made in house; host or cells: E. coli (DH5alpha, BL21 or JM109)
T3 sequence (Q5TCQ9 1-1481): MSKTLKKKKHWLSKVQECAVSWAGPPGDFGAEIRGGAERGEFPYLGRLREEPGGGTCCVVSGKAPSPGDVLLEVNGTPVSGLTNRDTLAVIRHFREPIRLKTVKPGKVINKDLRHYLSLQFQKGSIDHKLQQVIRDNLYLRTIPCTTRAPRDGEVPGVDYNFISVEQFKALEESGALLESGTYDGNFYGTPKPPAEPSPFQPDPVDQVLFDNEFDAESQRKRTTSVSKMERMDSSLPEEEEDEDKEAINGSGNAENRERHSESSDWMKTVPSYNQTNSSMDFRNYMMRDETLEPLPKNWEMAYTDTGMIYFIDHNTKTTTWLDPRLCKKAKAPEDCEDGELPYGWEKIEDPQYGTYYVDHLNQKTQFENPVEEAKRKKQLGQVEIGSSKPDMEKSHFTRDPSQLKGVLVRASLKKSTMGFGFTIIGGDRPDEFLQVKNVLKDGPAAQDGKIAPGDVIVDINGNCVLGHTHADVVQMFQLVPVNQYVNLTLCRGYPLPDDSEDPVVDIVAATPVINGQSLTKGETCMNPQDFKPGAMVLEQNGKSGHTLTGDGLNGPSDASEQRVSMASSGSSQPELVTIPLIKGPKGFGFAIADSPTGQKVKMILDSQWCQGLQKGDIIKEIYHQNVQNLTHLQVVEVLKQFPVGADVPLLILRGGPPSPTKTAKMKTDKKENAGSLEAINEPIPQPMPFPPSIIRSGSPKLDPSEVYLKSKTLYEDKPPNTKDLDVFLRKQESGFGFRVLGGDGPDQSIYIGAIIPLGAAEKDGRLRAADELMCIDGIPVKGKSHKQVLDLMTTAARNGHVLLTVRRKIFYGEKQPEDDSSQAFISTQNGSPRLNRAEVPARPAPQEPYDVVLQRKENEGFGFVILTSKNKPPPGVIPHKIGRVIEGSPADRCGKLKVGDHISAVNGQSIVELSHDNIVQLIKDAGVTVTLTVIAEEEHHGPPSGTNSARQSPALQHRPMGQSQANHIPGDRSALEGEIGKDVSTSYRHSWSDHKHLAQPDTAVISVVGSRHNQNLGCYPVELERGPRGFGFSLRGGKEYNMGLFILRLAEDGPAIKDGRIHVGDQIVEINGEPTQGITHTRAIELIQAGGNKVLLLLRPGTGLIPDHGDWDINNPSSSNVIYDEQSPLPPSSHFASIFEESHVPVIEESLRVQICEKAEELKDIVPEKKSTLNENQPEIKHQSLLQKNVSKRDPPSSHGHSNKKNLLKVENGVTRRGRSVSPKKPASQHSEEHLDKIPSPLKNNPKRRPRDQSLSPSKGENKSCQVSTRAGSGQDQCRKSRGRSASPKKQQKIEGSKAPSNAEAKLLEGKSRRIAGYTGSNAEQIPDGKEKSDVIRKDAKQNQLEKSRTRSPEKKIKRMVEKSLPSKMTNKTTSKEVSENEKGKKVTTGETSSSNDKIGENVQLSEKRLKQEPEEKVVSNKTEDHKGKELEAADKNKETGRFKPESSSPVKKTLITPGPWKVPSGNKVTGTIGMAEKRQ
The method in brief: as §1

[5] abbreviates: PDZ HEMBA 1003117, PDZ Domain 1.
Setting [6] is: PDZ Unnamed Protein, PDZ Domain 2.

Ends that are not written are not given here. Peptide text beside a SMILES is read from it. * marks the point of attachment. Biotin = O=C1N[C@H]2[C@H](CS[C@H]2CCCCC(=O)*)N1

T2 sequence (Q12923 whole entry, the tested form may be a part): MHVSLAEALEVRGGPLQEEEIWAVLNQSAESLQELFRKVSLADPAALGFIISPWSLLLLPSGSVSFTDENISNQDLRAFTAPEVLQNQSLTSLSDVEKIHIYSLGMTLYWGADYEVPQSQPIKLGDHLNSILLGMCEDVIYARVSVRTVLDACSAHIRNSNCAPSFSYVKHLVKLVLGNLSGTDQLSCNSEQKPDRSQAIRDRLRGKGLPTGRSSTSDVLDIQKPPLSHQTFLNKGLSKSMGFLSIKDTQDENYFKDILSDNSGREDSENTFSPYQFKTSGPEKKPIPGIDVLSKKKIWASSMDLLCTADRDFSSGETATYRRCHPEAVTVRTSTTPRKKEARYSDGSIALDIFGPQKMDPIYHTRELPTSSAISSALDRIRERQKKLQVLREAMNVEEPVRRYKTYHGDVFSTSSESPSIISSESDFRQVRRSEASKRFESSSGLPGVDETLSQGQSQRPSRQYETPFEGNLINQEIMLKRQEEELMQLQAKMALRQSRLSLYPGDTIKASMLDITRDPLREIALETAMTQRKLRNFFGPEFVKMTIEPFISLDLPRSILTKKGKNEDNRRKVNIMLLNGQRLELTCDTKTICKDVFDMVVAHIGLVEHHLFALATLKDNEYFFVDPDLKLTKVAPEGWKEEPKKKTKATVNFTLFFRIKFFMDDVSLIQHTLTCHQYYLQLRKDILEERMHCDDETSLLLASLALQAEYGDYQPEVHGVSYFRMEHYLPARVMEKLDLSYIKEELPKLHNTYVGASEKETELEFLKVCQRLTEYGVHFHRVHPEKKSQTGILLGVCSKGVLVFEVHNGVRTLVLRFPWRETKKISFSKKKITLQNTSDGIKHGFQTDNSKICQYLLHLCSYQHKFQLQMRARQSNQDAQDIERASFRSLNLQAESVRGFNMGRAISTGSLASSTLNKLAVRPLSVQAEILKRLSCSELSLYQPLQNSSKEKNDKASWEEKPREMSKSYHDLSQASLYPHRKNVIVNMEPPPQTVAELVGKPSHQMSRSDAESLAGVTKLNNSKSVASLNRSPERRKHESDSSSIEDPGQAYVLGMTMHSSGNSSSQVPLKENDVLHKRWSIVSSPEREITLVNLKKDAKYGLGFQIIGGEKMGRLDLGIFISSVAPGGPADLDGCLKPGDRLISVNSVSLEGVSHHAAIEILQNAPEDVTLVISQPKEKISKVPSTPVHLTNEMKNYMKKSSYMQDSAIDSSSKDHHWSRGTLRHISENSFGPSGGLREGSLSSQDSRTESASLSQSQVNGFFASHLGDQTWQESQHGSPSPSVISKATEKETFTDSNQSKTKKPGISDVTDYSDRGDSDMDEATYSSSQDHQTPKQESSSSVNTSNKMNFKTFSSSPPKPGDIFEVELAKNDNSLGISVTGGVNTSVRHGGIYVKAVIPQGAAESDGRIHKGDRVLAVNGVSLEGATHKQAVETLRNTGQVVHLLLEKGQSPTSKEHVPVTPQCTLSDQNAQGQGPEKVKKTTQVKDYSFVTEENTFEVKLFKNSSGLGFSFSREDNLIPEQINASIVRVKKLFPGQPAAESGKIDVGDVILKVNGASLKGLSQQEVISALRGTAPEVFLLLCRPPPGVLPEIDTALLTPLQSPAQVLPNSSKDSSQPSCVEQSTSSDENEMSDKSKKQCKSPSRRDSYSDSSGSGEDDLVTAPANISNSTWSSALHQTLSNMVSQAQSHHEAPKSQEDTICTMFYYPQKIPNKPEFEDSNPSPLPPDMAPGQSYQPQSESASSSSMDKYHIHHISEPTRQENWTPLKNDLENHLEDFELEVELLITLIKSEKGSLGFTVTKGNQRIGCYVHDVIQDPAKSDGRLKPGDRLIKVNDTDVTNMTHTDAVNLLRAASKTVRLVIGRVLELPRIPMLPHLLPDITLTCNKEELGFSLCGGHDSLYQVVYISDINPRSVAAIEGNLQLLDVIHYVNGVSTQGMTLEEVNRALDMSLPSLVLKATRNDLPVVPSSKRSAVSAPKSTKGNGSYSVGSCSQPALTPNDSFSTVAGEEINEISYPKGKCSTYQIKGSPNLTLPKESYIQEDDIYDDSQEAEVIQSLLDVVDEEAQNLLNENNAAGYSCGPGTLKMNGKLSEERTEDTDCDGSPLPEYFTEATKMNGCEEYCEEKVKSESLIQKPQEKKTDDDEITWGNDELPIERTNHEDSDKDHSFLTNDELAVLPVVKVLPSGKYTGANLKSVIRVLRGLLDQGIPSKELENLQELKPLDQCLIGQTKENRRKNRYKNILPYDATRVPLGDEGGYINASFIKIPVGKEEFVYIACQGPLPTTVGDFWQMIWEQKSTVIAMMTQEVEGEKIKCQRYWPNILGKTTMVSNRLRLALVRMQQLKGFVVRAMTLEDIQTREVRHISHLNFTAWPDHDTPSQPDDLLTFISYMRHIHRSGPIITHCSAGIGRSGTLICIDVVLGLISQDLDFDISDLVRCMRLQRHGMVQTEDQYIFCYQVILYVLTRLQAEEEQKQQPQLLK
T1 sequence (O75970 whole entry, the tested form may be a part): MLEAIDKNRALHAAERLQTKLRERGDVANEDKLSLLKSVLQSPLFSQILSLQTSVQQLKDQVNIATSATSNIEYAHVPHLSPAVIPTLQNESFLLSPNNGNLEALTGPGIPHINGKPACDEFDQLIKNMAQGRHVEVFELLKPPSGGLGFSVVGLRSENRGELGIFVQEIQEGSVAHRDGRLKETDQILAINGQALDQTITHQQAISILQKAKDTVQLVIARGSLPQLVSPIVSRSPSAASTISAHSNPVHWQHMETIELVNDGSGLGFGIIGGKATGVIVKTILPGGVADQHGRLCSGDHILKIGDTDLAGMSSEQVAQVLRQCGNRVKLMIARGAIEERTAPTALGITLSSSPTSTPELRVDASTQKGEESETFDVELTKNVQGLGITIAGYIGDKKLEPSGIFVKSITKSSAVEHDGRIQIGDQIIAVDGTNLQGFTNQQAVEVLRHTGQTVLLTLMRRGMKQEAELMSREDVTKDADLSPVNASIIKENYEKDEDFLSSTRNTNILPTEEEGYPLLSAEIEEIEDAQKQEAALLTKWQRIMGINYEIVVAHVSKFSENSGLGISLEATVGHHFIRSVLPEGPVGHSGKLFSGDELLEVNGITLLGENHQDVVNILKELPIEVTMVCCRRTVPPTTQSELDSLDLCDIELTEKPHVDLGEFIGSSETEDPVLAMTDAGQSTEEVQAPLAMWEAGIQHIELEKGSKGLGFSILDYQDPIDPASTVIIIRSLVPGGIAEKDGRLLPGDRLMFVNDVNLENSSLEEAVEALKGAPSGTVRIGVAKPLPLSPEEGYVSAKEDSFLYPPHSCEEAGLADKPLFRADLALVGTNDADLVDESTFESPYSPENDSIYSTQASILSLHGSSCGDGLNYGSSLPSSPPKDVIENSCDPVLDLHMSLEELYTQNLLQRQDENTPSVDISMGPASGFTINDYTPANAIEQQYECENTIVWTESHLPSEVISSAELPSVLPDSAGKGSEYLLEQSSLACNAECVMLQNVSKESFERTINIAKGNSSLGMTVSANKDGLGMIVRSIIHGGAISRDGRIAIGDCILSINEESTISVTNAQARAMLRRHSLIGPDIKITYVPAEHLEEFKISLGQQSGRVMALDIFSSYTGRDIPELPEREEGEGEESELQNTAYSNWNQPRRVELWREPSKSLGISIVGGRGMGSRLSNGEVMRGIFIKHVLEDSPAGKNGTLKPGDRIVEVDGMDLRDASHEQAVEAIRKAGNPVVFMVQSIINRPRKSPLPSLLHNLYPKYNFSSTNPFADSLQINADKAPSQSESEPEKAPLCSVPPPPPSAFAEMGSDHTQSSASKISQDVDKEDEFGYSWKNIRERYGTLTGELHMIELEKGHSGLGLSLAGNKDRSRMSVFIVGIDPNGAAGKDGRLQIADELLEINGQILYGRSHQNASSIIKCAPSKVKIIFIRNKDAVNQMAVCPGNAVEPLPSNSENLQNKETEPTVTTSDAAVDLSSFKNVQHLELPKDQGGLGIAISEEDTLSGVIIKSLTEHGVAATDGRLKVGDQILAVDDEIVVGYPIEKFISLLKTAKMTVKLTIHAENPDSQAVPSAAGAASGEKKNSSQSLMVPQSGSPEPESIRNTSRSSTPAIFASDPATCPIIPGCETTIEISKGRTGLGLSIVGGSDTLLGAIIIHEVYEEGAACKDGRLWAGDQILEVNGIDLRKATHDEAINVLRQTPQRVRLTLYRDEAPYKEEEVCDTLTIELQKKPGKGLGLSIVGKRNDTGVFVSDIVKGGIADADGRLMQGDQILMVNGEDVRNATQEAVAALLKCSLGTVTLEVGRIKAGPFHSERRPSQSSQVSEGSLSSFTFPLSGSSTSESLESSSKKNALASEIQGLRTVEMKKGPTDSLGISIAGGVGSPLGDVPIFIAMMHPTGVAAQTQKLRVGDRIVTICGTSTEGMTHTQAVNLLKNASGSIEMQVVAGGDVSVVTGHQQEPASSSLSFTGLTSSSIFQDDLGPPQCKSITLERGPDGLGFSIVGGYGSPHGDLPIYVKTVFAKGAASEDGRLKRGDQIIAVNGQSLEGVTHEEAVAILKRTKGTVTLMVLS

`CC[C@H](C)[C@H](NC(=O)[C@H](Cc1ccc(O)cc1)NC(=O)[C@@H](NC(=O)[C@@H]1CCCN1C(=O)[C@H](CCC(N)=O)NC(=O)[C@H](CCC(=O)O)NC(=O)[C@H](CCC(N)=O)NC(=O)[C@H](C)NC(=O)[C@@H](NC(=O)[C@H](CC(C)C)NC(=O)[C@H](CC(C)C)NC(=O)[C@H](CCCNC(=N)N)NC(=O)[C@H](Cc1ccc(O)cc1)NC(=O)[C@H](CCSC)NC(=O)[C@H](C)NC(=O)[C@H](C)NC(=O)[C@@H]1CCCN1C(=O)[C@H](CCSC)NC(=O)[C@@H](NC(=O)[C@H](CCCCN)NC(=O)CCCC[C@@H]1SC[C@@H]2NC(=O)N[C@@H]21)[C@@H](C)O)[C@@H](C)O)C(C)C)C(=O)O` [MINT-1] (Biotin-KTMPAAMYRLLTAQEQPVYI-OH; C-terminus assumed): the Classification is recorded as 1 (A450 nm 0-1) in assay [1] (PDZ MUPP-1, PDZ Domain 1); 1 (A450 nm 0-1) in assay [1] (PDZ MUPP-1, PDZ Domain 2); 3 (A450 nm 2-3) in assay [1] (PDZ MUPP-1, PDZ Domain 3); 2 (A450 nm 1-2) in assay [1] (PDZ MUPP-1, PDZ Domain 5); 3 (A450 nm 2-3) in assay [1] (PDZ MUPP-1, PDZ Domain 7); 3 (A450 nm 2-3) in assay [1] (PDZ MUPP-1, PDZ Domain 9). Besides, the Classification in assay [1] (PDZ MUPP-1, PDZ Domain 10) is reported as 1 (A450 nm 0-1); in assay [1] (PDZ MUPP-1, PDZ Domain 11), 5 (A450 nm of 4 more than 2× repeated); in assay [2] (PDZ PTPL-1, PDZ Domain 4) it was 5 (A450 nm of 4 more than 2× repeated); in assay [3] (setting [5]), 3 (A450 nm 2-3).

In the case of `CC(C)C[C@H](NC(=O)[C@H](C)NC(=O)[C@@H](NC(=O)[C@@H](NC(=O)[C@H](Cc1c[nH]cn1)NC(=O)[C@H](CC(C)C)NC(=O)CNC(=O)[C@H](CCC(N)=O)NC(=O)CNC(=O)CNC(=O)[C@H](C)NC(=O)[C@H](C)NC(=O)[C@H](CCCNC(=N)N)NC(=O)[C@H](C)NC(=O)[C@H](CO)NC(=O)[C@H](CC(=O)O)NC(=O)[C@H](CC(=O)O)NC(=O)[C@H](Cc1c[nH]c2ccccc12)NC(=O)[C@H](C)NC(=O)CCCC[C@@H]1SC[C@@H]2NC(=O)N[C@@H]21)C(C)C)[C@@H](C)O)C(=O)O` [LPAP] (Biotin-AWDDSARAAGGQGLHVTAL-OH; C-terminus assumed), the Classification in assay [2] (PDZ PTPL-1, PDZ Domain 2) is on record as 1 (A450 nm 0-1); in assay [3] (PDZ BAI-1, PDZ Domain 2), 2 (A450 nm 1-2); in assay [3] (PDZ FLJ 00011, PDZ Domain 1) it was 4 (A450 nm 3-4); in assay [3] (setting [5]) it was 1 (A450 nm 0-1); in assay [3] (PDZ SHANK, PDZ Domain 1) it was 3 (A450 nm 2-3); in assay [3] (setting [6]) it was 3 (A450 nm 2-3).

As to “A2AC_HUMAN (Modified) (Biotin-DFRPSFKHILFRRARRGFRQ; not fully specified)”, the Classification was 3 (A450 nm 2-3) in assay [1] (PDZ MUPP-1, PDZ Domain 4) and 3 (A450 nm 2-3) in assay [2] (PDZ PTPL-1, PDZ Domain 5).

Take “GPVPGEPAKPKTSAHHATFV (Biotin-GPVPGEPAKPKTSAHHATFV)”: the Classification is on record as 1 (A450 nm 0-1) in assay [1] (PDZ MUPP-1, PDZ Domain 11); 1 (A450 nm 0-1) in assay [2] (PDZ PTPL-1, PDZ Domain 4); 1 (A450 nm 0-1) in assay [3] (setting [5]).

Regarding `CC[C@H](C)[C@H](NC(=O)[C@H](Cc1ccc(O)cc1)NC(=O)[C@H](CC(C)C)NC(=O)[C@H](CCC(N)=O)NC(=O)[C@H](Cc1c[nH]cn1)NC(=O)[C@H](CO)NC(=O)[C@H](C)NC(=O)[C@H](CC(C)C)NC(=O)[C@@H](NC(=O)[C@H](CC(=O)O)NC(=O)[C@H](CCSC)NC(=O)[C@H](Cc1ccccc1)NC(=O)[C@@H]1CCCN1C(=O)[C@H](CCCNC(=N)N)NC(=O)[C@@H](NC(=O)[C@H](CC(C)C)NC(=O)[C@H](CC(N)=O)NC(=O)[C@H](CC(=O)O)NC(=O)[C@@H](NC(=O)[C@H](CO)NC(=O)CCCC[C@@H]1SC[C@@H]2NC(=O)N[C@@H]21)[C@@H](C)O)C(C)C)[C@@H](C)O)C(=O)O` [presenilin-2] (Biotin-STDNLVRPFMDTLASHQLYI-OH; C-terminus assumed), the Classification in assay [1] (PDZ MUPP-1, PDZ Domain 3) was 3 (A450 nm 2-3); in assay [1] (PDZ MUPP-1, PDZ Domain 7) it was 2 (A450 nm 1-2); in assay [1] (PDZ MUPP-1, PDZ Domain 9) it was 3 (A450 nm 2-3); in assay [2] (PDZ PTPL-1, PDZ Domain 4) it was 2 (A450 nm 1-2); in assay [3] (setting [5]) it was 4 (A450 nm 3-4).

As to “KTMPAAMFRLLTGQETPLYI (Biotin-KTMPAAMFRLLTGQETPLYI) [MINT-2]”, the Classification in assay [1] (PDZ MUPP-1, PDZ Domain 2) is on record as 1 (A450 nm 0-1); in assay [1] (PDZ MUPP-1, PDZ Domain 3), 1 (A450 nm 0-1); in assay [1] (PDZ MUPP-1, PDZ Domain 7), 1 (A450 nm 0-1); in assay [1] (PDZ MUPP-1, PDZ Domain 9), 1 (A450 nm 0-1); in assay [1] (PDZ MUPP-1, PDZ Domain 11), 5 (A450 nm of 4 more than 2× repeated); in assay [2] (PDZ PTPL-1, PDZ Domain 4) it was 4 (A450 nm 3-4). Moreover, the Classification in assay [3] (setting [5]) was 3 (A450 nm 2-3).

For the molecule “A2AA_HUMAN (modified) (Biotin-HDFRRAFKKILARGDRKRIV; not fully specified)”, the Classification in assay [1] (PDZ MUPP-1, PDZ Domain 6) is recorded as 2 (A450 nm 1-2); in assay [1] (PDZ MUPP-1, PDZ Domain 8), 1 (A450 nm 0-1); in assay [1] (PDZ MUPP-1, PDZ Domain 13) it was 1 (A450 nm 0-1); in assay [2] (PDZ PTPL-1, PDZ Domain 2), 2 (A450 nm 1-2); in assay [3] (PDZ BAI-1, PDZ Domain 6) it was 3 (A450 nm 2-3); in assay [3] (setting [5]), 1 (A450 nm 0-1). Further, the Classification in assay [3] (setting [6]) is 1 (A450 nm 0-1).

Consider `CC(C)C[C@H](NC(=O)[C@H](CCCNC(=N)N)NC(=O)CNC(=O)CNC(=O)[C@H](CCCNC(=N)N)NC(=O)[C@H](C)NC(=O)[C@@H]1CCCN1C(=O)[C@H](CCCNC(=N)N)NC(=O)CNC(=O)CNC(=O)[C@@H](NC(=O)[C@H](C)NC(=O)CCCC[C@@H]1SC[C@@H]2NC(=O)N[C@@H]21)C(C)C)C(=O)N[C@@H](CCC(N)=O)C(=O)NCC(=O)N[C@@H](CCCNC(=N)N)C(=O)N[C@@H](CCCNC(=N)N)C(=O)N[C@@H](CCC(N)=O)C(=O)N[C@H](C(=O)N[C@@H](CCC(N)=O)C(=O)N[C@H](C(=O)O)C(C)C)[C@@H](C)O` [HPV E6 58 (modified)] (Biotin-AVGGRPARGGRLQGRRQTQV-OH; C-terminus assumed), for which the Classification in assay [1] (PDZ MUPP-1, PDZ Domain 10) is 3 (A450 nm 2-3); in assay [1] (PDZ MUPP-1, PDZ Domain 13), 1 (A450 nm 0-1); in assay [4] (PDZ KIAA1634, PDZ Domain 1), 5 (A450 nm of 4 more than 2× repeated); in assay [4] (PDZ KIAA1634, PDZ Domain 2) it was 1 (A450 nm 0-1); in assay [4] (PDZ KIAA1634, PDZ Domain 5), 1 (A450 nm 0-1); in assay [3] (PDZ BAI-1, PDZ Domain 2), 5 (A450 nm of 4 more than 2× repeated). Further, the Classification in assay [3] (PDZ BAI-1, PDZ Domain 3) is 2 (A450 nm 1-2); in assay [3] (PDZ BAI-1, PDZ Domain 4) it was 2 (A450 nm 1-2); in assay [3] (PDZ BAI-1, PDZ Domain 5) it was 2 (A450 nm 1-2).

These data come from patent US20050282743A1, “Molecular interactions in cells” (Arbor Vita Corporation, priority 2001, published 2005).
